In the NIST ThermoML archive (doi:10.1021/acs.jced.5b00820):

Experiment: xn = mol fraction of the nth substance listed
Conditions: 102.2 kPa, Liquid, Vibrating tube method

C[Si](C)(O[Si](C)(C)c1ccccc1)c1ccccc1 [1,3-diphenyltetramethyldisiloxane] + C[Si]1(C)O[Si](C)(C)O[Si](C)(C)O[Si](C)(C)O1
mass density [kg/m3]
Conditions | 308.15 K | 313.15 K | 318.15 K | 323.15 K | 328.15 K
x1 = 0.05 | 940.79 | 935.08 | 929.44 | 923.79 | 918.1
x1 = 0.0999 | 942.6 | 937.01 | 931.46 | 925.91 | 920.32
x1 = 0.1503 | 944.43 | 938.95 | 933.49 | 928.04 | 922.57
x1 = 0.2005 | 946.19 | 940.8 | 935.45 | 930.1 | 924.72
x1 = 0.2507 | 947.88 | 942.59 | 937.33 | 932.06 | 926.77
x1 = 0.2963 | 949.39 | 944.19 | 939.02 | 933.84 | 928.63
x1 = 0.3509 | 951.16 | 946.05 | 940.97 | 935.88 | 930.78
x1 = 0.4001 | 952.67 | 947.66 | 942.65 | 937.65 | 932.62
x1 = 0.4471 | 954.04 | 949.1 | 944.16 | 939.26 | 934.29
x1 = 0.4968 | 955.6 | 950.74 | 945.91 | 941.08 | 936.23
x1 = 0.5512 | 957.17 | 952.39 | 947.64 | 942.9 | 938.15
x1 = 0.6003 | 958.51 | 953.82 | 949.15 | 944.46 | 939.79
x1 = 0.6502 | 959.83 | 955.22 | 950.62 | 946.01 | 941.41
x1 = 0.7001 | 961.15 | 956.6 | 952.09 | 947.56 | 943.03
x1 = 0.7497 | 962.4 | 957.92 | 953.48 | 949.04 | 944.59
x1 = 0.8 | 963.64 | 959.25 | 954.87 | 950.49 | 946.11
x1 = 0.85 | 964.8 | 960.48 | 956.18 | 951.88 | 947.58
x1 = 0.896 | 965.82 | 961.53 | 957.3 | 953.03 | 948.8
x1 = 0.9497 | 967 | 962.79 | 958.63 | 954.45 | 950.29
x1 = 1 | 968.05 | 963.92 | 959.8 | 955.69 | 951.58

C[Si](C)(O[Si](C)(C)c1ccccc1)c1ccccc1 [1,3-diphenyltetramethyldisiloxane] + C[Si]1(CCC(F)(F)F)O[Si](C)(CCC(F)(F)F)O[Si](C)(CCC(F)(F)F)O1
mass density [kg/m3]
Conditions | 308.15 K | 313.15 K | 318.15 K | 323.15 K | 328.15 K
x1 = 0.0501 | 1225.8 | 1219.39 | 1212.88 | 1206.4 | 1199.88
x1 = 0.1001 | 1214.52 | 1208.2 | 1201.82 | 1195.45 | 1189.07
x1 = 0.1499 | 1203.4 | 1197.13 | 1190.88 | 1184.63 | 1178.37
x1 = 0.2005 | 1191.71 | 1185.57 | 1179.46 | 1173.35 | 1167.25
x1 = 0.2497 | 1180.12 | 1174.1 | 1168.1 | 1162.13 | 1156.13
x1 = 0.3 | 1167.98 | 1162.08 | 1156.21 | 1150.35 | 1144.49
x1 = 0.3431 | 1157.27 | 1151.54 | 1145.79 | 1140.01 | 1134.24
x1 = 0.4001 | 1142.74 | 1137.19 | 1131.56 | 1125.93 | 1120.32
x1 = 0.45 | 1130.1 | 1124.64 | 1119.13 | 1113.61 | 1108.09
x1 = 0.4998 | 1117.1 | 1111.69 | 1106.32 | 1100.93 | 1095.54
x1 = 0.5482 | 1104.11 | 1098.84 | 1093.55 | 1088.31 | 1083.03
x1 = 0.5996 | 1089.99 | 1084.84 | 1079.71 | 1074.57 | 1069.43
x1 = 0.6501 | 1075.78 | 1070.7 | 1065.65 | 1060.62 | 1055.6
x1 = 0.7 | 1061.47 | 1056.57 | 1051.69 | 1046.82 | 1041.93
x1 = 0.75 | 1046.74 | 1041.96 | 1037.22 | 1032.47 | 1027.7
x1 = 0.8001 | 1031.67 | 1027.02 | 1022.41 | 1017.79 | 1013.17
x1 = 0.8499 | 1016.33 | 1011.73 | 1007.33 | 1002.84 | 998.35
x1 = 0.8998 | 1000.6 | 996.22 | 991.87 | 987.37 | 983.15
x1 = 0.95 | 984.46 | 980.22 | 976.02 | 971.79 | 967.58
x1 = 1 | 967.9 | 963.8 | 959.75 | 955.65 | 951.57
